Experimental data as given in patent US12466822B2, “Heterocyclic compounds as immunomodulators” (Incyte Corporation, priority 2016, dated 2025).

Target: T1, PD-1/PD-L1 protein/protein interaction (recombinant human PD-L1 protein (19-238), recombinant human PD-1 protein (25-167)) (Homo sapiens, UniProt Q9NZQ7)
T1 construct: Recombinant human PD-L1 protein (19-238) with a His-tag at the C-terminus; purchased AcroBiosystems PD1-H5229 (PD-L1-His); PD1-H5257 (PD-1-Fc)
Test: PD-1/PD-L1 Homogeneous Time-Resolved Fluorescence (HTRF) Binding Assay
Conditions: 25° C., PBS buffer (pH 7.4), 40 minutes preincubation with inhibitors
Summary of the method: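 HTRF read-out (665/620 nm) after 60 min at 25 °C with 1 nM Eu anti-human IgG and 20 nM APC anti-His. Beforehand, inhibitors were preincubated 40 min with Fc-PD-1 (25-167, […] as listed) and His-PD-L1 (19-238, 10 nM) in PBS pH 7.4 with Tween-20, BSA, 1% DMSO; IC50 from log-concentration curve.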

T1 sequence (Q9NZQ7 19-238): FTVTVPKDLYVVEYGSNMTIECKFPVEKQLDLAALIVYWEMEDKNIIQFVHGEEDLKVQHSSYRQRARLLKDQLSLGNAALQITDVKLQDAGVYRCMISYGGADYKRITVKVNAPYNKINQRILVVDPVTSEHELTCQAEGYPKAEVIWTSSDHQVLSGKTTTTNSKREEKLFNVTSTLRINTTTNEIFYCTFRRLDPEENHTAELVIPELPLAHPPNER

IC50, ≤ 10 nM:
Cc1c(-c2nc3c(s2)CN(C(=O)CN2CC[C@@H](O)C2)C3)cccc1-c1cccc(Nc2nccc3cc(CN4CC[C@@H](C(=O)O)C4)cnc23)c1Cl [Example 95, (R)-1-((8-((2-chloro-3′-(5-(2-((R)-3-hydroxypyrrolidin-1-yl)acetyl)-5,6-dihydro-4H-pyrrolo[3,4-d]thiazol-2-yl)-2′-methyl-[1,1′-biphenyl]-3-yl)amino)-1,7-naphthyridin-3-yl)methyl)pyrrolidine-3-carboxylic acid]
Cc1c(-c2nc3c(s2)CN(C(=O)CN(C)CCO)C3)cccc1-c1cccc(Nc2nccc3cc(CN4CC[C@@H](C(=O)O)C4)cnc23)c1Cl [Example 96, (R)-1-((8-((2-chloro-3′-(5-(N-(2-hydroxyethyl)-N-methylglycyl)-5,6-dihydro-4H-pyrrolo[3,4-d]thiazol-2-yl)-2′-methyl-[1,1′-biphenyl]-3-yl)amino)-1,7-naphthyridin-3-yl)methyl)pyrrolidine-3-carboxylic acid]
Cc1c(-c2nc3c(s2)CN(C(=O)CN2CC[C@H](O)C2)C3)cccc1-c1cccc(Nc2nccc3cc(CN4CC[C@@H](C(=O)O)C4)cnc23)c1Cl [Example 97, (R)-1-((8-((2-chloro-3′-(5-(2-((S)-3-hydroxypyrrolidin-1-yl)acetyl)-5,6-dihydro-4H-pyrrolo[3,4-d]thiazol-2-yl)-2′-methyl-[1,1′-biphenyl]-3-yl)amino)-1,7-naphthyridin-3-yl)methyl)pyrrolidine-3-carboxylic acid]
Cc1c(-c2nc3c(s2)CN(C(=O)CN2CC(O)C2)C3)cccc1-c1cccc(Nc2nccc3cc(CN4CC[C@@H](C(=O)O)C4)cnc23)c1Cl [Example 98, (R)-1-((8-((2-chloro-3′-(5-(2-(3-hydroxyazetidin-1-yl)acetyl)-5,6-dihydro-4H-pyrrolo[3,4-d]thiazol-2-yl)-2′-methyl-[1,1′-biphenyl]-3-yl)amino)-1,7-naphthyridin-3-yl)methyl)pyrrolidine-3-carboxylic acid]
Cc1c(NC(=O)c2nc3c(n2C)CCN(C[C@H]2CC[C@@H](C(=O)O)CC2)C3)cccc1-c1cccc(Nc2nccc3cc(CN4CC[C@@H](O)C4)cnc23)c1C [Example 99, Cis-4-((2-(3′-(3-(((R)-3-hydroxypyrrolidin-1-yl)methyl)-1,7-naphthyridin-8-ylamino)-2,2′-dimethylbiphenyl-3-ylcarbamoyl)-1-methyl-6,7-dihydro-1H-imidazo[4,5-c]pyridin-5(4H)-yl)methyl)cyclohexanecarboxylic acid]
